Experimental data: the supplement of paper PMC11451515

System: P12-Ichikawa
Test: cell viability relative to DMSO control; higher = less cytotoxic
Conditions: 48 h
Summary of the method: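 Viability was expressed as a per-plate percentage of DMSO wells, with cell-free wells as background. Leukemia cells (NOMO1 or SEM at 500 cells/well, P12-Ichikawa at 1000 cells/well) were adapted for at least four passages in each medium and seeded in 1536-well plates (5 μl). Library compounds in DMSO were pin-dosed over an 11-point threefold series from 47 μM to 0.79 nM, and CellTiter-Glo One luminescence was read after 48 h at 37°C.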

[1] = HPLM + 10% dialyzed FBS, 0.000781 µM
[2] = HPLM + 10% dialyzed FBS, 0.00234 µM
[3] = HPLM + 10% dialyzed FBS, 0.00702 µM
[4] = HPLM + 10% dialyzed FBS, 0.0211 µM
[5] = HPLM + 10% dialyzed FBS, 0.0632 µM
[6] = HPLM + 10% dialyzed FBS, 0.19 µM
[7] = HPLM + 10% dialyzed FBS, 0.569 µM
[8] = HPLM + 10% dialyzed FBS, 1.71 µM
[9] = HPLM + 10% dialyzed FBS, 5.12 µM
[10] = HPLM + 10% dialyzed FBS, 15.4 µM
[11] = HPLM + 10% dialyzed FBS, 46.1 µM
[12] = RPMI 5 mM glucose + 10% FBS, 0.000781 µM
[13] = RPMI 5 mM glucose + 10% FBS, 0.00234 µM
[14] = RPMI 5 mM glucose + 10% FBS, 0.00702 µM
[15] = RPMI 5 mM glucose + 10% FBS, 0.0211 µM
[16] = RPMI 5 mM glucose + 10% FBS, 0.0632 µM
[17] = RPMI 5 mM glucose + 10% FBS, 0.19 µM
[18] = RPMI 5 mM glucose + 10% FBS, 0.569 µM
[19] = RPMI 5 mM glucose + 10% FBS, 1.71 µM
[20] = RPMI 5 mM glucose + 10% FBS, 5.12 µM
[21] = RPMI 5 mM glucose + 10% FBS, 15.4 µM
[22] = RPMI 5 mM glucose + 10% FBS, 46.1 µM
[23] = RPMI 5 mM glucose + 10% dialyzed FBS, 0.000781 µM
[24] = RPMI 5 mM glucose + 10% dialyzed FBS, 0.00234 µM
[25] = RPMI 5 mM glucose + 10% dialyzed FBS, 0.00702 µM
[26] = RPMI 5 mM glucose + 10% dialyzed FBS, 0.0211 µM
[27] = RPMI 5 mM glucose + 10% dialyzed FBS, 0.0632 µM
[28] = RPMI 5 mM glucose + 10% dialyzed FBS, 0.19 µM
[29] = RPMI 5 mM glucose + 10% dialyzed FBS, 0.569 µM
[30] = RPMI 5 mM glucose + 10% dialyzed FBS, 1.71 µM
[31] = RPMI 5 mM glucose + 10% dialyzed FBS, 5.12 µM
[32] = RPMI 5 mM glucose + 10% dialyzed FBS, 15.4 µM
[33] = RPMI 5 mM glucose + 10% dialyzed FBS, 46.1 µM

Row | SMILES | cell viability [1] [%] | cell viability [2] [%] | cell viability [3] [%] | cell viability [4] [%] | cell viability [5] [%] | cell viability [6] [%] | cell viability [7] [%] | cell viability [8] [%] | cell viability [9] [%] | cell viability [10] [%] | cell viability [11] [%] | cell viability [12] [%] | cell viability [13] [%] | cell viability [14] [%] | cell viability [15] [%] | cell viability [16] [%] | cell viability [17] [%] | cell viability [18] [%] | cell viability [19] [%] | cell viability [20] [%] | cell viability [21] [%] | cell viability [22] [%] | cell viability [23] [%] | cell viability [24] [%] | cell viability [25] [%] | cell viability [26] [%] | cell viability [27] [%] | cell viability [28] [%] | cell viability [29] [%] | cell viability [30] [%] | cell viability [31] [%] | cell viability [32] [%] | cell viability [33] [%]
1 | CCOC(=O)O[C@]1(C(=O)OCCl)CC[C@H]2[C@@H]3CCC4=CC(=O)C=C[C@]4(C)[C@H]3[C@@H](O)C[C@@]21C | 97.6 | 102 | 99.3 | 107 | 105 | 118 | 101 | 104 | 86.1 | 101 | 102 | 95.9 | 95.8 | 95.7 | 95 | 110 | 102 | 111 | 100 | 76 | 97.1 | 88.5 | 89 | 93.3 | 94.6 | 98.3 | 99.3 | 91.1 | 98.4 | 102 | 83.4 | 98.5 | 90.3
2 | Nc1nc(N)c(N=O)c(OCC2CCCCC2)n1 | 89.4 | 90.3 | 88.9 | 90.6 | 97.6 | 92.2 | 88.3 | 81.1 | 75.6 | 60.6 | 40.1 | 86 | 87.3 | 86.9 | 93 | 98.2 | 95.3 | 84.6 | 78.7 | 53.8 | 45 | 34.7 | 84.8 | 89.2 | 85 | 86.9 | 100 | 88.5 | 91.3 | 72.3 | 59 | 48.9 | 35.9
3 | CN1CCN(CCCN2c3ccccc3Sc3ccc(Cl)cc32)CC1.O=C(O)/C=C\C(=O)O.O=C(O)/C=C\C(=O)O | 108 | 108 | 105 | 105 | 106 | 107 | 114 | 99 | 108 | 36.1 | 34.8 | 119 | 110 | 125 | 126 | 119 | 137 | 122 | 112 | 114 | 29.5 | 31.2 | 106 | 105 | 106 | 108 | 116 | 112 | 111 | 110 | 104 | 28.1 | 32.1
4 | CC(S)C(=O)NCC(=O)O (stereo unspecified) | 106 | 110 | 118 | 109 | 119 | 101 | 129 | 117 | 118 | 113 | 106 | 109 | 112 | 108 | 119 | 116 | 115 | 114 | 126 | 115 | 109 | 106 | 108 | 105 | 111 | 118 | 112 | 112 | 113 | 113 | 113 | 120 | 102
5 | O=C(NCC1CCOCC1)c1cnc(Nc2ccc(Cl)cc2Cl)nc1C(F)(F)F | 102 | 111 | 115 | 118 | 109 | 117 | 118 | 115 | 115 | 121 | 124 | 100 | 127 | 123 | 121 | 130 | 131 | 112 | 131 | 123 | 132 | 118 | 98 | 115 | 114 | 127 | 123 | 132 | 120 | 122 | 122 | 127 | 123
6 | Oc1ccc([C@@H]2Oc3ccc(O)cc3[C@@H]3CCC[C@@H]32)cc1 | 86.9 | 90.2 | 94.7 | 93.5 | 92.7 | 95.1 | 94.3 | 90.5 | 87.4 | 40.6 | 12.2 | 88.5 | 82.6 | 92.7 | 88.7 | 90 | 87 | 85.5 | 85.4 | 82.3 | 34.1 | 12 | 76.8 | 80.7 | 87.2 | 85.6 | 82.8 | 76.6 | 82.4 | 76.5 | 72.8 | 44.6 | 14.4
7 | O=C1N\C=N/C2=C1C=N[NH]2 | 83.8 | 89.6 | 83.5 | 92.1 | 83.9 | 93.2 | 91.1 | 87.6 | 72.4 | 77.8 | 25.4 | 83.9 | 91.4 | 84 | 87.9 | 80.6 | 81.7 | 82.8 | 79.1 | 84.2 | 84.4 | 67.3 | 81.7 | 86.2 | 79.1 | 88.7 | 78.7 | 79.3 | 90.5 | 85.2 | 87.1 | 85.2 | 68
